Test results: patent publication US20130190289A1, “COMPOUNDS AND METHODS FOR THE TREATMENT OR PREVENTION OF FLAVIVIRUS INFECTIONS” (priority 2010, published 2013)
Like-named read-outs stand apart in the source and are kept apart here.

Tests used:
[1] = tested on: HCV replicon (genotype 1b) in Huh7 cell line ET; assay: microbe, parasite or virus in culture; format: cell-based, HCV genotype 1b
[2] = tested on: Huh-7 ET, Molt-4, DU-145, Hep-G2 and SH-SY5Y cells; assay: [3H]Thymidine incorporation assay (cell toxicity); details: read-out: [3H]Thymidine CC50; [3H]thymidine incorporation, cell toxicity; mean value class; cell line not given
[3] = tested on: HCV sub-genomic replicon of genotype 1a in replicon cell line W11.8; assay: microbe, parasite or virus in culture; format: cell-based, HCV genotype 1a
Text: This procedure below describes the HCV replicon assay using a Huh7 hepatoma cell line harboring a highly cell culture-adapted replicon (genotype 1b) (hereafter named cell line ET). The ET cells contained the highly cell culture-adapted replicon I389luc-ubi-neo/NS3-3′/5.1 construct that carried, in addition to the neomycin gene, an integrated copy to the firefly luciferase gene (Krieger, N; Lohmann, V; Bartenschlager, R. Enhancement of hepatitis C virus RNA replication by cell culture-adaptive mutations. J. Virol. 2001, 75, 4614-4624). A replicon cell line W11.8, containing the 1a genotype of HCV was also used. These two cell lines (genotype 1b and 1a) allowed measurement of RNA replication and translation by measuring luciferase activity (against genotype 1b) or by measuring the NS5A level using the ELISA assay (against genotype 1a). […] ET cell lines were maintained in cultures at a sub-confluent level (<85%). The culture media used for cell passaging consisted of DMEM (Gibco BRL Laboratories, Mississauga, ON, Canada) supplemented with 10% fetal bovine serum with 1% penicilin/streptomycin, 1% glutamine, 1% sodium pyruvate, 1% non-essential amino acids, and 180 µg/ml of G418 final concentration.
Replicon cell lines W11.8 containing a sub-genomic replicon of genotype 1a was used for the HCV Replicon Cell-Based detection using the ELISA. The RNA replication in presence of different drug concentrations was indirectly measured in these cell lines by the level of NS5A protein content upon drug treatment for four days. The NS5A is a non-structural protein of HCV and is used as marker of HCV replication in this assay.
For the treatment of the cells with the testing drug, Culture medium was removed from the 175 cm^2 T-flask by aspiration. Cell monolayer was rinsed with 10-20 mL of PBS 1× at room temperature. PBS was removed by aspiration. Cells were trypsinized using 3 mL of Trypsin (0.25%)/EDTA (0.1%) solution. Flasks were incubated at 37° C. (incubator) for 7 minutes. Complete medium (9 mL) without G418 is then added. Cell clumps were disrupted by pipetting up and down several times.
The cell suspension was then transferred to a 50 mL Falcon polypropylene tube. Cells were then counted several times using the haemocytometer. Cells were diluted at 50,000 cells/mL with complete DMEM without G418, then transferred into a sterile reservoir. Using a multichannel pipet, approximately 5,000 viable cells (100 μL) were plated per well in a white opaque 96-well microtiter plate. After an incubation period of 2-4 hours at 37° C. in a 5% CO2 incubator, compounds were added at various concentrations.
Drugs were resuspended in DMSO at a stock concentration of 100 mM or 10 mM. […] Then, drugs were diluted at twice the final concentration in the same medium (without G418) described earlier, in sterile 96-deep well plate and according to a particular template (see Appendix). One volume (100 μL) of each drug dilution was then added to each well that contains cells.
Sixteen wells were used as control (0% inhibition) without drug. Eight wells were used as background control (100% inhibition) containing 2 μM (final concentration) of the reference compound. […] Values from 100% inhibited wells were averaged and used as the background value. Cells are further incubated for 4 days at 37° C. in a 5% CO2 incubator.
For the measurement of NS5A protein content, following the incubation time of four days, the media was throwed into an appropriate waste container by inverting the plate. Any residual liquid was removed by tapping gently on absorbent paper several times. The plates were then washed once with 150 μL of PBS per well, and then incubated for 5 minutes at room temperature on a shaker (500 rpm).

[4] = [3H]Thymidine incorporation assay (cell toxicity); details: human
[5] = read-out: HCV-Replicon-(Luci-ET) 1b_IC50
[6] = Hepatitis C virus, Huh-7, 96 h, read-out: HCV-Replicon (Luci-ET)-1b_IC50
[7] = Hepatitis C virus, W11.8, 96 h, read-out: HCV-Replicon-ELISA-1a IC50
[8] = Hepatitis C virus, Huh-7, read-out: HCV-Replicon-(Luci-ET) 1b_IC50
[9] = Hepatitis C virus, W11.8, read-out: HCV-Replicon-ELISA-1a IC50

## COC(C)C(C(=O)N(C)C)N(C(=O)C1CCC(C)CC1)c1cc(C#CC(C)(C)C)sc1C(=O)O (centres unmarked) [Compound 75]
[1]; [5]
  IC50: < 100 nM
[2]
  CC50: 10000 to 100000 nM

## CC(C)C#Cc1cc(N(CC(=O)N2CC3(COC3)C2)C(=O)C2CCC(C)CC2)c(C(=O)O)s1 (centres unmarked) [Compound 71]
[1]; [5]
  IC50: < 100 nM
[2]
  CC50: > 100000 nM

## CCN1CCC[C@H](N(c2cc(C#CC(C)(C)C)sc2C(=O)O)C(=O)[C@H]2CC[C@H](C)CC2)C1=O [Compound 148, (S)-5-(3,3-Dimethylbut-1-ynyl)-3-((trans)-4-methyl-N-(1-ethyl-2-oxopiperidin-3-yl)cyclohexanecarboxamido)thiophene-2-carboxylic acid]
[1]; [6]
  IC50: < 100 nM
[3]; [7]
  IC50: < 100 nM
[4]
  CC50 at 72 h: > 100000 nM

## CO[C@H](C)[C@@H](C(=O)N(C)C)N(c1cc(C#CC(C)(C)C)sc1C(=O)O)C(=O)[C@H]1CC[C@H](C)CC1 [Compound 57]
[1]; [5]
  IC50: < 100 nM
[2]
  CC50: > 100000 nM

## C[C@@H](CN(c1cc(C#CC(C)(C)C)sc1C(=O)O)C(=O)[C@H]1CC[C@H](C)CC1)C(=O)N1CCOCC1 [Compound 108, 5-(3,3-Dimethylbut-1-ynyl)-3-[(trans-4-methylcyclohexanecarbonyl)-[(2S)-2-methyl-3-morpholino-3-oxo-propyl]amino]thiophene-2-carboxylic acid]
[1]; [8]
  IC50: < 100 nM
[3]; [9]
  IC50: < 100 nM
[4]
  CC50 at 72 h: > 100000 nM

## CCN1CC[C@H](N(c2cc(C#CC(C)(C)C)sc2C(=O)O)C(=O)[C@H]2CC[C@H](C)CC2)C1=O [Compound 131, 5-(3,3-dimethylbut-1-ynyl)-3-[[(3S)-1-ethyl-2-oxo-pyrrolidin-3-yl]-(trans-4-methylcyclohexanecarbonyl)amino]thiophene-2-carboxylic acid]
[1]; [6]
  IC50: < 100 nM
[3]; [7]
  IC50: < 100 nM
[4]
  CC50 at 72 h: > 100000 nM

## CC[C@@H](C(=O)N1C[C@@H]2C[C@H]1CO2)N(c1cc(C#CC(C)(C)C)sc1C(=O)O)C(=O)[C@H]1CC[C@H](C)CC1 [Compound 94]
[1]; [8]
  IC50: < 100 nM
[3]; [9]
  IC50: < 100 nM
[4]
  CC50 at 72 h: > 100000 nM

## C[C@@H](C(=O)N(C)C)N(c1cc(C#CC(C)(C)C)sc1C(=O)O)C(=O)[C@H]1CC[C@H](C)CC1 [Compound 3, 5-(3,3-Dimethyl-but-1-ynyl)-3-[((S)-1-dimethylcarbamoyl-ethyl)-(trans-4-methyl-cyclohexanecarbonyl)-amino]-thiophene-2-carboxylic acid]
[1]; [8]
  IC50: < 100 nM
[3]; [9]
  IC50: < 100 nM
[4]
  CC50 at 72 h: > 100000 nM

## CN1CCOC[C@H](N(c2cc(C#CC(C)(C)C)sc2C(=O)O)C(=O)[C@H]2CC[C@H](C)CC2)C1=O [Compound 136, (S)-5-(3,3-Dimethylbut-1-ynyl)-3-[(trans)-4-methyl-N-(4-methyl-5-oxo-1,4-oxazepan-6-yl)cyclohexanecarboxamido]thiophene-2-carboxylic acid]
[1]; [6]
  IC50: < 100 nM
[3]; [7]
  IC50: < 100 nM
[4]
  CC50 at 72 h: > 100000 nM

## CC[C@@H](C(=O)N1CCOC(C)C1)N(C(=O)C1CCC(C)CC1)c1cc(C#CC(C)(C)C)sc1C(=O)O (some centres unmarked) [Compound 56]
[1]; [8]
  IC50: < 100 nM
[3]; [9]
  IC50: < 100 nM
[4]
  CC50 at 72 h: 10000 to 100000 nM

## COCC(C(=O)N(C)C)N(C(=O)C1CCC(C)CC1)c1cc(C#CC(C)(C)C)sc1C(=O)O (single isomer, unassigned) [Compound 21]
[1]; [8]
  IC50: < 100 nM
[3]; [9]
  IC50: < 100 nM
[4]
  CC50 at 72 h: > 100000 nM

## CC(C)N1CC[C@H](N(c2cc(C#CC(C)(C)C)sc2C(=O)O)C(=O)[C@H]2CC[C@H](C)CC2)C1=O [Compound 142, 5-(3,3-dimethylbut-1-ynyl)-3-[[(3S)-1-isopropyl-2-oxo-pyrrolidin-3-yl]-(trans-4-methylcyclohexanecarbonyl)amino]thiophene-2-carboxylic acid]
[1]; [6]
  IC50: < 100 nM
[3]; [7]
  IC50: < 100 nM
[4]
  CC50 at 72 h: 10000 to 100000 nM

## COC(C)C(C(=O)N1CCOCC1)N(C(=O)C1CCC(C)CC1)c1cc(C#CC(C)(C)C)sc1C(=O)O (centres unmarked) [Compound 65]
[1]; [5]
  IC50: < 100 nM
[2]
  CC50: > 100000 nM

## CCN(CC)C(=O)CN(c1cc(C#CC(C)(C)C)sc1C(=O)O)C(=O)[C@H]1CC[C@H](C)CC1 [Compound 17]
[1]; [8]
  IC50: < 100 nM
[3]; [9]
  IC50: < 100 nM
[4]
  CC50 at 72 h: > 100000 nM

## CC1CCC(C(=O)N(c2cc(C#CC(C)(C)C)sc2C(=O)O)C2CCN(C)C2=O)CC1 (centres unmarked) [Compound 83]
[1]; [8]
  IC50: < 100 nM
[3]; [9]
  IC50: < 100 nM
[4]
  CC50 at 72 h: > 100000 nM

## CC(C)N1CCC[C@H](N(c2cc(C#CC(C)(C)C)sc2C(=O)O)C(=O)[C@H]2CC[C@H](C)CC2)C1=O [Compound 149, (S)-5-(3,3-Dimethylbut-1-ynyl)-3-((trans)-4-methyl-N-(1-isopropyl-2-oxopiperidin-3-yl)cyclohexanecarboxamido)thiophene-2-carboxylic acid]
[1]; [6]
  IC50: < 100 nM
[3]; [7]
  IC50: < 100 nM
[4]
  CC50 at 72 h: 10000 to 100000 nM

## CC(C)(C)C#Cc1cc(N(C(=O)[C@H]2CC[C@H](C)CC2)[C@H]2CCN(CCO)C2=O)c(C(=O)O)s1 [Compound 139, 5-(3,3-Dimethylbut-1-ynyl)-3-[[(3S)-1-(2-hydroxyethyl)-2-oxo-pyrrolidin-3-yl]-(trans-4-methylcyclohexanecarbonyl)amino]thiophene-2-carboxylic acid]
[1]; [6]
  IC50: < 100 nM
[3]; [7]
  IC50: < 100 nM
[4]
  CC50 at 72 h: > 100000 nM

## CC(C)(C)C#Cc1cc(N(CC(=O)N2CCOCC2)C(=O)c2ccc(Cl)cc2Cl)c(C(=O)O)s1 [Compound 124, 3-[(2,4-dichlorobenzoyl)-(2-morpholino-2-oxo-ethyl)amino]-5-(3,3-dimethylbut-1-ynyl)thiophene-2-carboxylic acid]
[1]; [6]
  IC50: < 100 nM
[3]; [7]
  IC50: < 100 nM
[4]
  CC50 at 72 h: > 100000 nM

## CC[C@@H](C(=O)N1CC(OC)C1)N(c1cc(C#CC(C)(C)C)sc1C(=O)O)C(=O)[C@H]1CC[C@H](C)CC1 [Compound 79]
[1]; [8]
  IC50: < 100 nM
[3]; [9]
  IC50: < 100 nM
[4]
  CC50 at 72 h: > 100000 nM

## CC[C@@H](C(=O)N1CCOCC1)N(c1cc(C#CC(C)(C)C)sc1C(=O)O)C(=O)[C@H]1CC[C@H](C)CC1 [Compound 12]
[1]; [8]
  IC50: < 100 nM
[3]; [9]
  IC50: < 100 nM
[4]
  CC50 at 72 h: 10000 to 100000 nM

## CC[C@@H](C(=O)N1CCN(C)CC1)N(c1cc(C#CC(C)(C)C)sc1C(=O)O)C(=O)[C@H]1CC[C@H](C)CC1 [Compound 82]
[1]; [5]
  IC50: < 100 nM
[3]; read-out: HCV-Replicon-ELISA-1a IC50
  IC50: < 100 nM
[2]
  CC50: > 100000 nM

## COCCN1CCCC[C@H](N(c2cc(C#CC(C)(C)C)sc2C(=O)O)C(=O)[C@H]2CC[C@H](C)CC2)C1=O [Compound 138, (S)-5-(3,3-Dimethylbut-1-ynyl)-3-((trans)-4-methyl-N-(1-(2-methoxyethyl)-2-oxoazepan-3-yl)cyclohexanecarboxamido)thiophene-2-carboxylic acid]
[1]; [6]
  IC50: < 100 nM
[3]; [7]
  IC50: < 100 nM
[4]
  CC50 at 72 h: > 100000 nM
